Experimental data reported in article PMC12649549, “Sequence Permutation Generated Lysine and Tryptophan-Rich Antimicrobial Peptides with Enhanced Therapeutic Index” (Antibiotics, 2025).
Like-named read-outs stand apart in the source and are kept apart here.

Assays:
Gram-negative bacteria = assay: Geometric mean MIC and therapeutic index, Gram-negative bacteria; format: cell-based
Method: (§1) In this study, we aimed to investigate the potential of W5K series peptides for therapeutic use. To evaluate their efficacy for antibacterial therapy, we used the Therapeutic Index (TI) as a measure of their cell selectivity. The TI was calculated as the ratio of the concentration causing 10% hemolysis of human red blood cells (HC10) to the geometric mean minimum inhibitory concentration (GM) of the peptides against both Gram-negative and Gram-positive bacteria. This parameter was used to quantitatively assess the balance between antibacterial potency and cytotoxicity among the W5K derivatives.
(§2) The antibacterial activities of the peptides in Müller-Hinton (MH) broth and modified LYM broth were determined using the standard broth microdilution method as per Clinical and Laboratory Standards Institute (CLSI) guidelines. The LYM broth was prepared with specific components and adjusted to different conditions, including varying concentrations of NaCl and MgCl2, and different pH levels. To prepare the LYM broth, 5.4 mM KCl, 5.6 mM Na2HPO4, 0.5 mM MgSO4, and 1.0 mM sodium citrate were added. Additionally, 0.4 mg of ZnCl2, 2.0 mg of FeCl3·6H2O, 0.1 mg of CuSO4·5H2O, 0.1 mg of MnSO4·H2O, 0.1 mg of Na2B4O7∙10H2O, 700 mg of amino acid mixtures without tryptophan (Takara Bio Inc., San Jose, CA, USA), and 20 mg of L-tryptophan were added per liter of medium. The pH was adjusted to 7.4, and a vitamin mixture (100X, Sigma) and glucose concentration of 2% were added. For different conditions of LYM broth, NaCl concentrations of 300, 200, 150, and 50 mM, MgCl2 concentrations of 2.5, 1.5, and 0.5 mM, and pH levels of 6.5, 5.5, and 4.5 were adjusted. Bacterial strains were incubated in MH broth overnight, regrown, and diluted to a final concentration of 5 × 10^5 CFU/mL. Peptides were added to each well at final concentrations of 50, 25, 12.5, 6.25, 3.13, 1.56, and 0.78 µg/mL, and 99 µL of diluted microbes was loaded into each well of a polypropylene 96-well plate. […] The Morpheus HeatMap software (https://software.broadinstitute.org/morpheus/) was used to display MIC values on a color scale. All experiments were independently repeated three times.

Gram-positive bacteria = assay: Geometric mean MIC and therapeutic index, Gram-positive bacteria; format: cell-based
Method: as §1, §2

[1] = test system: A. baumannii 14B0097 (Acinetobacter sp., BCRC number 14B0097)
Method: (§3) The antibacterial and salt-resistant activity of the peptides was tested using Escherichia coli (ATCC 25922), Pseudomonas aeruginosa Migula (ATCC 27853), Acinetobacter sp. (BCRC number 14B0091, BCRC number 14B0097, and BCRC number 14B0100), and Staphylococcus aureus sp. strains (ATCC 25923, ATCC 33591, ATCC 33592, ATCC 33593, and ATCC 6538). All bacteria were obtained from the Food Industry Research and Development Institute (Hsinchu, Taiwan) and cultured in sterilized Müller-Hinton (MH) broth at 37 °C and 200 rpm for 8 h. The inoculum concentrations were determined by measuring the optical density at 600 nm (OD 600 = 1, approximately 10^8 CFU/mL) using an Ultrospec 2100 pro UV-Visible spectrophotometer (Biochrom Ltd., Cambridge, UK) after 8 h of culture.
as §2

[2] = test system: A. baumannii 14B0091 (Acinetobacter sp., BCRC number 14B0091)
Method: as §3, §2

S. aureus ATCC 6538 = test system: S. aureus ATCC 6538
Method: as §3, §2

[3] = test system: A. baumannii 14B00100 (Acinetobacter sp., BCRC number 14B0100)
Method: as §3, §2

[4] = test system: Escherichia coli (ATCC 25922)
Method: as §3, §2

S. aureus ATCC 25923 = test system: S. aureus ATCC 25923
Method: as §3, §2

[5] = LYM broth, 0 mM NaCl, 16 h, 37 °C
[6] = LYM broth, 50 mM NaCl, 16 h, 37 °C
[7] = LYM broth, 100 mM NaCl, 16 h, 37 °C
[8] = LYM broth, 200 mM (NaCl), 16 h, 37 °C
[9] = LYM broth, 300 mM (NaCl), 16 h, 37 °C
[10] = MH broth, 5 × 10^5 CFU/mL, 16 h, 37 °C, repeated three times

Substance: Ac-KKKKWRKWLKWLA-NH2 [Peptide W5K11]
- GM G− (geometric mean of the MIC values) (Gram-negative bacteria): 2.1 µg/mL
- Therapeutic Index (TI) G− (Gram-negative bacteria; HC10/GM, Gram-negative bacteria): 34.5
- GM G+ (geometric mean of the MIC values) (Gram-positive bacteria): 5.4 µg/mL
- Therapeutic Index (TI) G+ (Gram-positive bacteria; HC10/GM, Gram-positive bacteria): 13.0
- MIC [1, 5]: 1.56 µg/mL
- MIC ([1]; LYM broth, 0.5 mM MgCl2): 1.56 µg/mL
- MIC ([1]; LYM broth, 1.5 mM MgCl2): 1.56 µg/mL
- MIC ([1]; LYM broth, 2.5 mM MgCl2): 1.56 µg/mL
- MIC [1, 6]: 1.56 µg/mL
- MIC [1, 7]: 1.56 µg/mL
- MIC [1, 8]: 1.56 µg/mL
- MIC [1, 9]: 1.56 µg/mL
- MIC ([1]; LYM broth, pH 4.5): 1.56 µg/mL
- MIC ([1]; LYM broth, pH 5.5): 1.56 µg/mL
- MIC ([1]; LYM broth, pH 6.5): 1.56 µg/mL
- MIC [1, 10]: 1.56 µg/mL
- MIC [2, 5]: 1.56 µg/mL
- MIC ([2]; LYM broth, 0.5 mM MgCl2): 1.56 µg/mL
- MIC ([2]; LYM broth, 1.5 mM MgCl2): 1.56 µg/mL
- MIC ([2]; LYM broth, 2.5 mM MgCl2): 1.56 µg/mL
- MIC [2, 6]: 1.56 µg/mL
- MIC [2, 7]: 1.56 µg/mL
- MIC [2, 8]: 1.56 µg/mL
- MIC [2, 9]: 1.56 µg/mL
- MIC ([2]; LYM broth, pH 4.5): 1.56 µg/mL
- MIC ([2]; LYM broth, pH 5.5): 1.56 µg/mL
- MIC ([2]; LYM broth, pH 6.5): 1.56 µg/mL
- MIC [2, 10]: 0.78 µg/mL
- MIC (S. aureus ATCC 6538; [5]): 1.56 µg/mL
- MIC (S. aureus ATCC 6538; LYM broth, 0.5 mM MgCl2): 1.56 µg/mL
- MIC (S. aureus ATCC 6538; LYM broth, 1.5 mM MgCl2): 1.56 µg/mL
- MIC (S. aureus ATCC 6538; LYM broth, 2.5 mM MgCl2): 1.56 µg/mL
- MIC (S. aureus ATCC 6538; [6]): 1.56 µg/mL
- MIC (S. aureus ATCC 6538; [7]): 3.13 µg/mL
- MIC (S. aureus ATCC 6538; [8]): 3.13 µg/mL
- MIC (S. aureus ATCC 6538; [9]): 6.25 µg/mL
- MIC (S. aureus ATCC 6538; LYM broth, pH 4.5): 3.13 µg/mL
- MIC (S. aureus ATCC 6538; LYM broth, pH 5.5): 1.56 µg/mL
- MIC (S. aureus ATCC 6538; LYM broth, pH 6.5): 1.56 µg/mL
- MIC (S. aureus ATCC 6538; [10]): 3.13 µg/mL
- MIC [3, 5]: 0.78 µg/mL
- MIC ([3]; LYM broth, 0.5 mM MgCl2): 1.56 µg/mL
- MIC ([3]; LYM broth, 1.5 mM MgCl2): 1.56 µg/mL
- MIC ([3]; LYM broth, 2.5 mM MgCl2): 1.56 µg/mL
- MIC [3, 6]: 0.78 µg/mL
- MIC [3, 7]: 0.78 µg/mL
- MIC [3, 8]: 0.78 µg/mL
- MIC [3, 9]: 0.78 µg/mL
- MIC ([3]; LYM broth, pH 4.5): 1.56 µg/mL
- MIC ([3]; LYM broth, pH 5.5): 1.56 µg/mL
- MIC ([3]; LYM broth, pH 6.5): 1.56 µg/mL
- MIC [3, 10]: 1.56 µg/mL
- MIC [4, 5]: 1.56 µg/mL
- MIC ([4]; LYM broth, 0.5 mM MgCl2): 3.13 µg/mL
- MIC ([4]; LYM broth, 1.5 mM MgCl2): 3.13 µg/mL
- MIC ([4]; LYM broth, 2.5 mM MgCl2): 3.13 µg/mL
- MIC [4, 6]: 1.56 µg/mL
- MIC [4, 7]: 3.13 µg/mL
- MIC [4, 8]: 3.13 µg/mL
- MIC [4, 9]: 6.25 µg/mL
- MIC ([4]; LYM broth, pH 4.5): 1.56 µg/mL
- MIC ([4]; LYM broth, pH 5.5): 1.56 µg/mL
- MIC ([4]; LYM broth, pH 6.5): 1.56 µg/mL
- MIC [4, 10]: 6.25 µg/mL
- MIC (S. aureus ATCC 25923; [5]): 1.56 µg/mL
- MIC (S. aureus ATCC 25923; LYM broth, 0.5 mM MgCl2): 1.56 µg/mL
- MIC (S. aureus ATCC 25923; LYM broth, 1.5 mM MgCl2): 1.56 µg/mL
- MIC (S. aureus ATCC 25923; LYM broth, 2.5 mM MgCl2): 1.56 µg/mL
- MIC (S. aureus ATCC 25923; [6]): 1.56 µg/mL
- MIC (S. aureus ATCC 25923; [7]): 3.13 µg/mL
- MIC (S. aureus ATCC 25923; [8]): 3.13 µg/mL
- MIC (S. aureus ATCC 25923; [9]): 6.25 µg/mL
- MIC (S. aureus ATCC 25923; LYM broth, pH 4.5): 3.13 µg/mL
- MIC (S. aureus ATCC 25923; LYM broth, pH 5.5): 1.56 µg/mL
- MIC (S. aureus ATCC 25923; LYM broth, pH 6.5): 1.56 µg/mL
- MIC (S. aureus ATCC 25923; [10]): 3.13 µg/mL
